According to US9060541B2, “Sterilizer for foods” (Kawakami Co., Ltd., priority 2009, dated 2015):
Read-outs that look alike come from different tables or passages of the source.

Key:
Type in all cases: cell-based
Parameters in all cases: key: D: There is no sterilization effect.; C: There is a sterilization effect in step (1) but no sterilization effect in step (2).; B: There is a sterilization effect up to step (2) but no sterilization effect in step (3).; A: There is a sterilization effect up to step (3)
[1] = system: Vibrio cholerae O139 MO45
[2] = system: Vibrio cholerae non-O1 non-O139 KX-N105
Vibrio fluvialis KX-F24 = experiment: Comparison test of sterilization effects against various food poisoning microbes
[3] = system: Salmonella serotype Rissen KX-S151; experiment: as above
[4] = system: Salmonella serotype Enteritidis KX-S148; experiment: as above
[5] = system: Plesiomonas shigelloides KX-P1945; experiment: as above
[6] = system: Shigella boydii serotype 4 KX-H288; experiment: as above
Shigella sonnei KX-H285 = experiment: as above
Aeromonas sobria KX-A435 = experiment: as above
[7] = system: Aeromonas hydrophila KX-A428; experiment: as above
[8] = system: Enterotoxigenic Escherichia coli RIMD 0509267; experiment: as above
[9] = system: Enteroaggregative Escherichia coli O111:H21 K-H-6; experiment: as above
[10] = system: Pseudomonas anguilliseptica NCMB1950; experiment: as above
[11] = system: Clostridium perfringens NCTC8237
[12] = system: Candida albicans NCPF 3179; experiment: Comparison test of sterilization effects against various food poisoning microbes
[13] = Table 7, test microbe solution without yeast extract
[14] = Table 8, yeast extract 4 weight % blended in test microbe solution

SMILES	Sterilization effect [1, 13]	Sterilization effect [1, 14]	Sterilization effect [2, 13]	Sterilization effect [2, 14]	Sterilization effect (Vibrio fluvialis KX-F24; [13])	Sterilization effect (Vibrio fluvialis KX-F24; [14])	Sterilization effect [3, 13]	Sterilization effect [3, 14]	Sterilization effect [4, 13]	Sterilization effect [4, 14]	Sterilization effect [5, 13]	Sterilization effect [5, 14]	Sterilization effect [6, 13]	Sterilization effect [6, 14]	Sterilization effect (Shigella sonnei KX-H285; [13])	Sterilization effect (Shigella sonnei KX-H285; [14])	Sterilization effect (Aeromonas sobria KX-A435; [13])	Sterilization effect (Aeromonas sobria KX-A435; [14])	Sterilization effect [7, 13]	Sterilization effect [7, 14]	other results
CCO [EtOH 30%, ethanol]	B	C	C	C	C	C	C	C	C	C	B	B	D	D	C	C	B	C	B	C	Sterilization effect [8, 13]: D; Sterilization effect [8, 14]: D; Sterilization effect [9, 13]: D; Sterilization effect [9, 14]: D; Sterilization effect [10, 13]: B; Sterilization effect [10, 14]: B; Sterilization effect [11, 13]: D; Sterilization effect [11, 14]: D; Sterilization effect [12, 13]: B; Sterilization effect [12, 14]: C
[Na+].[O-]Cl [S.H 150 ppm, sodium hypochlorite]	A	D	A	D	A	D	A	D	A	D	A	C	A	D	A	D	A	D	A	D	Sterilization effect [8, 13]: A; Sterilization effect [8, 14]: D; Sterilization effect [9, 13]: A; Sterilization effect [9, 14]: D; Sterilization effect [10, 13]: A; Sterilization effect [10, 14]: D; Sterilization effect [11, 13]: A; Sterilization effect [11, 14]: D; Sterilization effect [12, 13]: A; Sterilization effect [12, 14]: D
